This experiment deals with P388 leukemia ip, CD2F1 mice, survival T/C. Put plainly: NCI In Vivo Anticancer Drug Screen. Data for tumor model P388 Leukemia (intraperitoneal) in CD2F1 (CDF1) mice. To be noted: endpoint: median survival time, higher = longer survival. The method in brief: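 Mice carrying the transplanted tumor received test compound or vehicle. Survival was recorded in each group, and the value is the treated-group measurement divided by that of the vehicle-treated control group.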

Where [1] appears, read: dose: 60.0 mg/kg/injection, schedule: Q01DX005 (ip), vehicle: Klucel (hydroxypropylcellulose) (HPC).
The mark [2] stands for this setting: dose: 120.0 mg/kg/injection, schedule: Q01DX005 (ip), vehicle: Klucel (hydroxypropylcellulose) (HPC).
Where [3] appears, read: dose: 240.0 mg/kg/injection, schedule: Q01DX005 (ip), vehicle: Klucel (hydroxypropylcellulose) (HPC).
The mark [4] stands for this setting: dose: 60.0 mg/kg/injection, schedule: Q01DX005 (ip), vehicle: saline with Tween-80.
Setting [5] is: dose: 120.0 mg/kg/injection, schedule: Q01DX005 (ip), vehicle: saline with Tween-80.
[6] abbreviates: dose: 240.0 mg/kg/injection, schedule: Q01DX005 (ip), vehicle: saline with Tween-80.
[7] abbreviates: dose: 50.0 mg/kg/injection, schedule: Q01DX005 (ip), vehicle: Klucel (hydroxypropylcellulose) (HPC).
[8] abbreviates: dose: 100.0 mg/kg/injection, schedule: Q01DX005 (ip), vehicle: Klucel (hydroxypropylcellulose) (HPC).
Where [9] appears, read: dose: 200.0 mg/kg/injection, schedule: Q01DX005 (ip), vehicle: Klucel (hydroxypropylcellulose) (HPC).
The mark [10] stands for this setting: dose: 50.0 mg/kg/injection, schedule: Q01DX005 (ip), vehicle: saline with Tween-80.
[11] abbreviates: dose: 100.0 mg/kg/injection, schedule: Q01DX005 (ip), vehicle: saline with Tween-80.
[12] abbreviates: dose: 200.0 mg/kg/injection, schedule: Q01DX005 (ip), vehicle: saline with Tween-80.
Setting [13] is: dose: 60.0 mg/kg/injection, schedule: Q01DX005 (ip), vehicle: saline.
Setting [14] is: dose: 120.0 mg/kg/injection, schedule: Q01DX005 (ip), vehicle: saline.
[15] abbreviates: dose: 240.0 mg/kg/injection, schedule: Q01DX005 (ip), vehicle: saline.
Where [16] appears, read: dose: 100.0 mg/kg/injection, schedule: Q01DX009 (ip), vehicle: saline with Tween-80.
The mark [17] stands for this setting: dose: 200.0 mg/kg/injection, schedule: Q01DX009 (ip), vehicle: saline with Tween-80.

Several values for one entry are separate records, joined by “and”; a condition that tells them apart may be missing. Identical values can stand only once. Inconclusive results and toxic doses are left out.

On to `COc1cccc2c1C(=O)c1c(O)c3c(c(O)c1C2=O)CC(O)(C(C)=O)CC3OC1CC([N+](C)(C)C)C(O)C(C)O1` (stereo not given), for which the T/C by setting is: (dose: 1.56 mg/kg/injection, schedule: Q01DX009 (ip), vehicle: water) 101 % of control; (dose: 3.12 mg/kg/injection, schedule: Q01DX009 (ip), vehicle: water) 90 % of control; (dose: 3.13 mg/kg/injection, schedule: Q01DX009 (ip), vehicle: water) 113 % of control; (dose: 6.25 mg/kg/injection, schedule: Q01DX009 (ip), vehicle: water) 118 % of control; (dose: 12.5 mg/kg/injection, schedule: Q01DX009 (ip), vehicle: water) 110 % of control and 112 % of control; (dose: 25.0 mg/kg/injection, schedule: Q01DX009 (ip), vehicle: water) 111 % of control and 120 % of control.

As for `C1CN2CCCN3CCCN(C1)P23`, the T/C (dose: 100.0 mg/kg/injection, schedule: Q04DX002 (ip), vehicle: saline) was 115 % of control and the T/C (dose: 200.0 mg/kg/injection, schedule: Q04DX002 (ip), vehicle: saline) was 98 % of control.

Take `CC(C)CC(NC(=O)OCCc1ccccn1)C(=O)NC(Cc1ccccc1)C(=O)OC(C)(C)C` (stereo not given): the T/C reads like this: under setting [1], 101 % of control; under setting [2], 95 % of control; under setting [3], 94 % of control.

For `NC(=O)c1c(Cl)nc2n1CCS2`, the T/C under setting [1] is 94 % of control; the T/C (dose: 100.0 mg/kg/injection, schedule: Q01DX001 (ip), vehicle: Klucel (hydroxypropylcellulose) (HPC)) is 107 % of control; the T/C under setting [2] is 95 % of control; the T/C (dose: 200.0 mg/kg/injection, schedule: Q01DX001 (ip), vehicle: Klucel (hydroxypropylcellulose) (HPC)) was 100 % of control; the T/C under setting [3] is 88 % of control; the T/C (dose: 400.0 mg/kg/injection, schedule: Q01DX001 (ip), vehicle: Klucel (hydroxypropylcellulose) (HPC)) was 109 % of control.

Take `CN=C(NC)c1ccc(NC(=O)Nc2ccc(C)c(NC(=O)Nc3ccc(C(=NC)NC)cc3)c2)cc1`: the T/C runs as follows: (dose: 1.56 mg/kg/injection, schedule: Q01DX005 (ip), vehicle: saline) 96 % of control; (dose: 3.12 mg/kg/injection, schedule: Q01DX005 (ip), vehicle: saline) 99 % of control; (dose: 6.25 mg/kg/injection, schedule: Q01DX005 (ip), vehicle: saline) 96 % of control; (dose: 6.25 mg/kg/injection, schedule: Q01DX005 (ip), vehicle: suspension in saline) 103 % of control.

As to `CCOC(=O)c1ccc(-n2c(C)nc3ccc(Br)cc3c2=O)cc1`, the T/C is 98 % of control under setting [4], 95 % of control under setting [5] and 100 % of control under setting [6].

With `N#Cc1cc2ccccc2n(Cc2ccccc2)c1=O`, the T/C runs as follows: under setting [7], 101 % of control; under setting [8], 109 % of control; under setting [9], 100 % of control.

As for `COP(=O)(CC(=O)OC(CC(=O)OCc1ccccc1)C(=O)OCc1ccccc1)OC` (stereo not given), the T/C was 98 % of control under setting [10], 92 % of control under setting [11] and 93 % of control under setting [12].

Take `CC(CN(C)C)C(=O)C(=Cc1ccccc1)C(=O)C(C)CN(C)C` (stereo not given): the T/C is, setting by setting: under setting [13], 100 % of control; under setting [14], 108 % of control; under setting [15], 102 % of control.

With `O=C(NP(=O)(N1CC1)N1CC1)c1cc(I)ccc1I`, the T/C reads like this: (dose: 4.0 mg/kg/injection, schedule: Q01DX005 (ip), vehicle: suspension in saline) 122 % of control; (dose: 4.0 mg/kg/injection, schedule: Q01DX005 (iv), vehicle: suspension in saline) 107 % of control; (dose: 8.0 mg/kg/injection, schedule: Q01DX005 (iv), vehicle: suspension in saline) 112 % of control; (dose: 16.0 mg/kg/injection, schedule: Q01DX005 (ip), vehicle: suspension in saline) 165 % of control; (dose: 16.0 mg/kg/injection, schedule: Q01DX005 (iv), vehicle: suspension in saline) 122 % of control; (dose: 32.0 mg/kg/injection, schedule: Q01DX005 (ip), vehicle: suspension in saline) 190 % of control. For the same compound, the T/C (dose: 64.0 mg/kg/injection, schedule: Q01DX005 (ip), vehicle: suspension in saline) is 192 % of control.

Turning to `CCCCCCCCCCCCCCCCCC(=O)NC1c2ccccc2Oc2ccccc21`, the T/C by setting is: under setting [10], 87 % of control; under setting [11], 90 % of control; under setting [12], 92 % of control.

Regarding `CC1(C)N[P+]2(Nc3ccccc3O2)OC1=O` (stereo not given), the T/C (dose: 100.0 mg/kg/injection, schedule: Q04DX002 (ip), vehicle: Klucel (hydroxypropylcellulose) (HPC)) is 97 % of control; the T/C (dose: 200.0 mg/kg/injection, schedule: Q04DX002 (ip), vehicle: Klucel (hydroxypropylcellulose) (HPC)) was 93 % of control; the T/C (dose: 400.0 mg/kg/injection, schedule: Q04DX002 (ip), vehicle: Klucel (hydroxypropylcellulose) (HPC)) is 87 % of control.

For `O=P(Oc1ccc(OP(=O)(N2CC2)N2CC2)cc1)(N1CC1)N1CC1`, the T/C is 154 % of control under setting [16]; 181 % of control under setting [17]; 154 % of control (dose: 200.0 mg/kg/injection, schedule: Q04DX003 (ip), vehicle: saline with Tween-80); 166 % of control (dose: 264.0 mg/kg/injection, schedule: Q04DX003 (ip), vehicle: saline with Tween-80); 166 % of control (dose: 400.0 mg/kg/injection, schedule: Q04DX003 (ip), vehicle: saline with Tween-80).

As to `Cc1cc2c(=O)c3ccccc3oc2c(C#N)c1C`, the T/C under setting [13] is 97 % of control, the T/C under setting [14] is 91 % of control and the T/C under setting [15] was 89 % of control.

For `c1ccc2c(NC3=NCCO3)c3ccccc3nc2c1`, the T/C is, setting by setting: (dose: 3.12 mg/kg/injection, schedule: Q01DX009 (ip), vehicle: Klucel (hydroxypropylcellulose) (HPC)) 95 % of control; (dose: 6.25 mg/kg/injection, schedule: Q01DX009 (ip), vehicle: Klucel (hydroxypropylcellulose) (HPC)) 95 % of control; (dose: 12.5 mg/kg/injection, schedule: Q01DX009 (ip), vehicle: Klucel (hydroxypropylcellulose) (HPC)) 103 % of control; (dose: 25.0 mg/kg/injection, schedule: Q01DX009 (ip), vehicle: Klucel (hydroxypropylcellulose) (HPC)) 111 % of control.

Take `Nc1ccc(S(=O)(=O)Nc2nc(-c3ccccc3)cc(-c3ccccc3O)n2)cc1`: the T/C is 96 % of control under setting [4] and 96 % of control under setting [5].

For `CCCCCCC(=O)/C=C/c1ccc(OC(=O)c2ccc(C#N)cc2)cc1`, the T/C by setting is: (dose: 50.0 mg/kg/injection, schedule: Q01DX009 (ip), vehicle: saline with Tween-80) 100 % of control; under setting [16], 101 % of control; under setting [17], 95 % of control.

Turning to `O=C1OC(OC2OC(=O)C(Cl)=C2Cl)C(Cl)=C1Cl` (stereo not given), the T/C (dose: 12.5 mg/kg/injection, schedule: Q01DX005 (ip), vehicle: saline with Tween-80) is 104 % of control and 109 % of control; the T/C (dose: 25.0 mg/kg/injection, schedule: Q01DX005 (ip), vehicle: saline with Tween-80) was 116 % of control and 117 % of control.

With `O=P(CSCCO)(c1ccccc1)c1ccccc1`, the T/C was 89 % of control under setting [4], 93 % of control under setting [5] and 97 % of control under setting [6].

On to `CNS(=O)(=O)c1cc([N+](=O)[O-])c(N2CCCCC2)c([N+](=O)[O-])c1`, for which the T/C (dose: 50.0 mg/kg/injection, schedule: Q01DX009 (ip), vehicle: Klucel (hydroxypropylcellulose) (HPC)) was 100 % of control; the T/C (dose: 100.0 mg/kg/injection, schedule: Q01DX009 (ip), vehicle: Klucel (hydroxypropylcellulose) (HPC)) is 100 % of control; the T/C (dose: 200.0 mg/kg/injection, schedule: Q01DX009 (ip), vehicle: Klucel (hydroxypropylcellulose) (HPC)) is 99 % of control.

With `CC(C)=CC(O)C/C(C)=C/CC/C(C)=C/CCC1(C)C(CCCO)/C(=C(/C)C=O)CCC1(C)O` (stereo not given), the T/C is 106 % of control (dose: 25.0 mg/kg/injection, schedule: Q01DX005 (ip), vehicle: Klucel (hydroxypropylcellulose) (HPC)); 106 % of control under setting [7]; 119 % of control under setting [8]; 116 % of control under setting [9].

The record behind these values is PubChem BioAssay AID330 (DTP/NCI, 2004).
